According to patent US20240018161A1, “MODULATORS OF CYSTIC FIBROSIS TRANSMEMBRANE CONDUCTANCE REGULATOR” (VERTEX PHARMACEUTICALS INCORPORATED, priority 2020, published 2024):
Read-outs that look alike come from different tables or passages of the source. Each block holds one compound with its values, some of them ahead of it.

Biological target: CFTR-mediated chloride transport in human intestinal epithelial enteroid cells (Homo sapiens, UniProt P13569)
Assay: Membrane potential dye, Enteroid Assay A
Type: cell-based
Conditions: for EC50: read-out: Ent. A EC50
Experimental: Base medium (ADF+++) consisted of Advanced DMEM/Ham's F12, 2 mM Glutamax, 10 mM HEPES, […] penicillin/streptomycin.
Bath 1 Buffer consisted of 1 mM MgCl2, 160 mM NaCl, 4.5 mM KCl, 10 mM HEPES, 10 mM Glucose, 2 mM CaCl2.
Chloride Free Buffer consisted of 1 mM Magnesium Gluconate, 2 mM Calcium Gluconate, 4.5 mM Potassium Gluconate, 160 mM Sodium Gluconate, 10 mM HEPES, 10 mM Glucose.
Bath1 Dye Solution consisted of Bath 1 Buffer, 0.04% Pluronic F127, 20 μM Methyl Oxonol, 30 μM CaCCinh-A01, 30 μM Chicago Sky Blue.
Chloride Free Dye Solution consisted of Chloride Free Buffer, 0.04% Pluronic F127, 20 μM Methyl Oxonol, 30 μM CaCCinh-A01, 30 μM Chicago Sky Blue.
3. Enteroid Cell Harvesting and Seeding
Cells were recovered in cell recovery solution, collected by centrifugation at 650 rpm for 5 min at 4° C., resuspended in TryPLE and incubated for 5 min at 37° C. Cells were then collected by centrifugation at 650 rpm for 5 min at 4° C. and resuspended in IEMM containing 10 μM ROCK inhibitor (RI).
4. Membrane Potential Dye, Enteroid Assay A
Briefly, cells were washed 5 times in Bath 1 Buffer. Bath 1 Dye Solution was added, and the cells were incubated for 25 min at room temperature. Following dye incubation, cells were washed 3 times in Chloride Free Dye Solution. Chloride transport was initiated by addition of Chloride Free Dye Stimulation Solution and the fluorescence signal was read for 15 min. […] Chloride transport was then expressed as a percentage of the chloride transport following treatment with 3 μM N-[(6-amino-2-pyridyl)sulfonyl]-6-(3-fluoro-5-isobutoxy-phenyl)-2-[(4S)-2,2,4-trimethylpyrrolidin-1-yl]pyridine-3-carboxamide, 3 μM (R)-1-(2,2-difluorobenzo[d][1,3]dioxol-5-yl)-N-(1-(2,3-dihydroxypropyl)-6-fluoro-2-(1-hydroxy-2-methylpropan-2-yl)-1H-indol-5-yl)cyclopropanecarboxamide and 300 nM acute N-[2,4-bis(1,1-dimethylethyl)-5-hydroxyphenyl]-1,4-dihydro-4-oxoquinoline-3-carboxamide triple combination control (% Activity).

[1] = enteroid cells incubated with test compound 18-24 hours, acute 10 μM forskolin and 300 nM N-[2,4-bis(1,1-dimethylethyl)-5-hydroxyphenyl]-1,4-dihydro-4-oxoquinoline-3-carboxamide
[2] = percentage of chloride transport of triple combination control (3 μM N-[(6-amino-2-pyridyl)sulfonyl]-6-(3-fluoro-5-isobutoxy-phenyl)-2-[(4S)-2,2,4-trimethylpyrrolidin-1-yl]pyridine-3-carboxamide based)

Chain of CFTR-mediated chloride transport in human intestinal epithelial enteroid cells (P13569 with tags, fused parts or gaps DEL508-508): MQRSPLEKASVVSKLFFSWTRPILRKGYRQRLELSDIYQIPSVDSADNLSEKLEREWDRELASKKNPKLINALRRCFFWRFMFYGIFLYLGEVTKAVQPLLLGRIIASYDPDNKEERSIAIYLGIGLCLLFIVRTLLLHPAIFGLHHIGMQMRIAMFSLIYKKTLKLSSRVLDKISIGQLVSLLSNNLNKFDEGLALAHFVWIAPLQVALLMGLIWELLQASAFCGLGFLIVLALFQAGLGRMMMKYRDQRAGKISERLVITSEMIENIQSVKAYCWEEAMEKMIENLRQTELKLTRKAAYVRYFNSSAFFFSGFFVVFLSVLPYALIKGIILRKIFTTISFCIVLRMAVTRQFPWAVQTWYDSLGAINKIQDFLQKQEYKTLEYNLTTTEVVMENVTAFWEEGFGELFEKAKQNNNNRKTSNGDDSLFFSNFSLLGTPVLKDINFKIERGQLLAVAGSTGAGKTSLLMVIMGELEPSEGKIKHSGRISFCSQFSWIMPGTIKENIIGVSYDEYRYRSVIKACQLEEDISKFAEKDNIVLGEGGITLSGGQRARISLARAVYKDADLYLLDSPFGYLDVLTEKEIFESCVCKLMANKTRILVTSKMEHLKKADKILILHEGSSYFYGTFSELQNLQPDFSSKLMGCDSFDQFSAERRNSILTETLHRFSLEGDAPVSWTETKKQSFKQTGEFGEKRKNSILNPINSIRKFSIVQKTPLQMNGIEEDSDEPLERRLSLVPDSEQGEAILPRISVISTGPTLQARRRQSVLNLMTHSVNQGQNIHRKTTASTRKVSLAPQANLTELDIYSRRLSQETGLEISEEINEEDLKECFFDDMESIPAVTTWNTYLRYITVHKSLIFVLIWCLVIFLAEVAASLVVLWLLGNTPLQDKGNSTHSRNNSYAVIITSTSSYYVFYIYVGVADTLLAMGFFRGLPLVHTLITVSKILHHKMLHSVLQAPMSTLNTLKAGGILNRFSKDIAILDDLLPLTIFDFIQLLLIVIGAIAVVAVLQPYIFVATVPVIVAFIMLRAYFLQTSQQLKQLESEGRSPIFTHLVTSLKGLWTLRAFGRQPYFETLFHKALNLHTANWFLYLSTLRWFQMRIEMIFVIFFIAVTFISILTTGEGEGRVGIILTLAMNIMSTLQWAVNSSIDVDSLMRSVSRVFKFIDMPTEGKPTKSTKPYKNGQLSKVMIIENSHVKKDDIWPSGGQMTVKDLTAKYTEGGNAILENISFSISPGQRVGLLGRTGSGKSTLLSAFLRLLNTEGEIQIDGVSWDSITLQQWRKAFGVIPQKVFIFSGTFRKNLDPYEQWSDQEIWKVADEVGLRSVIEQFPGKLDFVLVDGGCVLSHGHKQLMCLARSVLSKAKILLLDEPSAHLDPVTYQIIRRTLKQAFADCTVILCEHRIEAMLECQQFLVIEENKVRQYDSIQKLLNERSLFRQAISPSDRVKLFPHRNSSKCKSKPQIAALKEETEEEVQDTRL

Structure (SMILES): Cc1cccc(C)c1-c1cc2nc(n1)NS(=O)(=O)c1cccc(c1)C(=O)N1CC(O2)C2CCCN(C)C2C1 (single isomer, unassigned) [Compound 202, 12-(2,6-Dimethylphenyl)-21-methyl-15-oxa-8λ^6-thia-1,9,11,21,25-pentaazapentacyclo[14.7.1.13,7.110,14.017,22]hexacosa-3,5,7(26),10(25),11,13-hexaene-2,8,8-trione]
Ent. A Max Activity (%) (Enteroid Assay A): + (+ is <30%)

Structure (SMILES): Cc1cccc(C)c1-c1cc2nc(n1)NS(=O)(=O)c1cccc(c1)C(=O)N1CCCC(O2)C1CC(C)C (single isomer, unassigned) [Compound 230, 18-(2,6-Dimethylphenyl)-22-(2-methylpropyl)-2-oxa-14λ^6-thia-7,15,17,20-tetraazatetracyclo[14.3.1.13,7.19,13]docosa-1(20),9(21),10,12,16,18-hexaene-8,14,14-trione]
EC50 [1]: < 1000 nM
Ent. A Max Activity (%) [2]: +++ (+++ is >60%)

Structure (SMILES): Cc1cccc(C)c1-c1cc2nc(n1)NS(=O)(=O)c1cccc(c1)C(=O)N1CCCC(O2)C1CC(C)C (single isomer, unassigned) [Compound 231, 18-(2,6-Dimethylphenyl)-22-(2-methylpropyl)-2-oxa-14λ^6-thia-7,15,17,20-tetraazatetracyclo[14.3.1.13,7.19,13]docosa-1(20),9(21),10,12,16,18-hexaene-8,14,14-trione]
EC50 [1]: < 1000 nM
Ent. A Max Activity (%) [2]: +++ (+++ is >60%)

Structure (SMILES): Cc1cccc(C)c1-c1cc2nc(n1)NS(=O)(=O)c1cccc(c1)C(=O)N1CC(C)(C)CC(O2)C1CC(C)C (single isomer, unassigned) [Compound 232, 18-(2,6-Dimethylphenyl)-5,5-dimethyl-22-(2-methylpropyl)-2-oxa-14λ^6-thia-7,15,17,20-tetraazatetracyclo[14.3.1.13,7.19,13]docosa-1(20),9(21),10,12,16,18-hexaene-8,14,14-trione]
EC50 (Enteroid Assay A): < 1000 nM

Structure (SMILES): Cc1cccc(C)c1-c1cc2nc(n1)NS(=O)(=O)c1cccc(c1)C(=O)N1CC(C)(C)CC(O2)C1CC(C)C (single isomer, unassigned) [Compound 233, 18-(2,6-dimethylphenyl)-5,5-dimethyl-22-(2-methylpropyl)-2-oxa-14λ^6-thia-7,15,17,20-tetraazatetracyclo[14.3.1.13,7.19,13]docosa-1(20),9(21),10,12,16,18-hexaene-8,14,14-trione]
EC50 (Enteroid Assay A): < 1000 nM

Structure (SMILES): Cc1cccc(C)c1-c1cc2nc(n1)NS(=N)(=O)c1cccc(c1)C(=O)N1CCN(CCC(C)(C)C)C[C@H](C1)O2 (single isomer, unassigned) [Compound 244, 18-(3,3-dimethylbutyl)-12-(2,6-dimethylphenyl)-8-imino-15-oxa-8λ^6-thia-1,9,11,18,22-pentaazatetracyclo[14.4.1.13,7.110,14]tricosa-3,5,7(23),10,12,14(22)-hexaene-2,8-dione]
Ent. A Max Activity (%) (Enteroid Assay A): + (+ is <30%)

Structure (SMILES): Cc1cccc(C)c1-c1cc2nc(n1)NS(=O)(=O)c1cccc(c1)C(=O)N1C[C@@H](CN(CC(F)(F)F)CC1CC(C)C)O2 (stereo in doubt) [Compound 105, (16R,20R)-12-(2,6-Dimethylphenyl)-20-(2-methylpropyl)-18-(2,2,2-trifluoroethyl)-15-oxa-8λ^6-thia-1,9,11,18,22-pentaazatetracyclo[14.4.1.13,7.110,14]tricosa-3(23),4,6,10,12,14(22)-hexaene-2,8,8-trione]
Ent. A Max Activity (%) (Enteroid Assay A): + (+ is <30%)

Structure (SMILES): Cc1cccc(C)c1-c1cc2nc(n1)NS(=O)(=O)c1cccc(c1)C(=O)N1CCN(C[C@@H]3CC(C)(C)NC3=O)C[C@@H]1CO2 (stereo in doubt) [Compound 293]
Ent. A Max Activity (%) [2]: + (+ is <300%)

Further lines, with some results ahead:

Ent. A Max Activity (%) (Enteroid Assay A): ++ (++ is 30-60%)
EC50 (Enteroid Assay A): 3000 to 30000 nM
Structure (SMILES): Cc1cccc(C)c1-c1cc2nc(n1)NS(=O)(=O)c1cccc(c1)C(=O)N1CC3C(CCCN3C)[C@@H](C1)O2 (single isomer, unassigned) [Compound 203, 12-(2,6-dimethylphenyl)-21-methyl-15-oxa-8λ^6-thia-1,9,11,21,25-pentaazapentacyclo[14.7.1.13,7.110,14.017,22]hexacosa-3,5,7(26),10(25),11,13-hexaene-2,8,8-trione]

EC50 (Enteroid Assay A): 1000 to 3000 nM
Structure (SMILES): Cc1cccc(C)c1-c1cc2nc(n1)NS(=O)(=O)c1cccc(c1)C(=O)N1CC3C(CCCN3C)[C@H](C1)O2 (single isomer, unassigned) [Compound 204, 12-(2,6-dimethylphenyl)-21-methyl-15-oxa-8λ^6-thia-1,9,11,21,25-pentaazapentacyclo[14.7.1.13,7.110,14.017,22]hexacosa-3,5,7(26),10(25),11,13-hexaene-2,8,8-trione]

EC50 [1]: 1000 to 3000 nM
Structure (SMILES): Cc1cccc(C)c1-c1cc2nc(n1)NS(=O)(=O)c1cccc(c1)C(=O)N1Cc3ccccc3C[C@H](C1)O2 (single isomer, unassigned) [Compound 216, 12-(2,6-dimethylphenyl)-15-oxa-8λ^6-thia-1,9,11,26-tetraazapentacyclo[14.8.1.13,7.110,14.018,23]heptacosa-3(27),4,6,10,12,14(26),18,20,22-nonaene-2,8,8-trione]
Ent. A Max Activity (%) [2]: +++ (+++ is >60%)

EC50 (Enteroid Assay A): < 1000 nM
Structure (SMILES): Cc1cccc(C)c1-c1cc2nc(n1)NS(=O)(=O)c1cccc(c1)C(=O)N1CCc3ccccc3C(C1)O2 (single isomer, unassigned) [Compound 221, 12-(2,6-dimethylphenyl)-15-oxa-8λ^6-thia-1,9,11,26-tetraazapentacyclo[14.8.1.13,7.110,14.017,22]heptacosa-3(27),4,6,10(26),11,13,17,19,21-nonaene-2,8,8-trione]

EC50 [1]: < 1000 nM
Structure (SMILES): Cc1cccc(C)c1-c1cc2nc(n1)NS(=O)(=O)c1cccc(c1)C(=O)N1CC(CC(c3ccccc3)C1)O2 (single isomer, unassigned) [Compound 223, 18-(2,6-dimethylphenyl)-5-phenyl-2-oxa-14λ^6-thia-7,15,17,20-tetraazatetracyclo[14.3.1.13,7.19,13]docosa-1(19),9(21),10,12,16(20),17-hexaene-8,14,14-trione]
Ent. A Max Activity (%) [2]: ++ (++ is 30-60%)

EC50 [1]: < 1000 nM
Structure (SMILES): Cc1cccc(C)c1-c1cc2nc(n1)NS(=O)(=O)c1cccc(c1)C(=O)N1CC(CC(c3ccccc3)C1)O2 (single isomer, unassigned) [Compound 224, 18-(2,6-dimethylphenyl)-5-phenyl-2-oxa-14λ^6-thia-7,15,17,20-tetraazatetracyclo[14.3.1.13,7.19,13]docosa-1(19),9(21),10,12,16(20),17-hexaene-8,14,14-trione]
Ent. A Max Activity (%) [2]: ++ (++ is 30-60%)

EC50 [1]: < 1000 nM
Structure (SMILES): Cc1cccc(C)c1-c1cc2nc(n1)NS(=O)(=O)c1cccc(c1)C(=O)N1CC(CCC1c1ccccc1)O2 (single isomer, unassigned) [Compound 225, 18-(2,6-dimethylphenyl)-6-phenyl-2-oxa-14λ^6-thia-7,15,17,20-tetraazatetracyclo[14.3.1.13,7.19,13]docosa-1(19),9(21),10,12,16(20),17-hexaene-8,14,14-trione]
Ent. A Max Activity (%) [2]: ++ (++ is 30-60%)

EC50 [1]: < 1000 nM
Structure (SMILES): Cc1cccc(C)c1-c1cc2nc(n1)NS(=O)(=O)c1cccc(c1)C(=O)N1CC(CCC1c1ccccc1)O2 (single isomer, unassigned) [Compound 226, 18-(2,6-Dimethylphenyl)-6-phenyl-2-oxa-14λ^6-thia-7,15,17,20-tetraazatetracyclo[14.3.1.13,7.19,13]docosa-1(19),9(21),10,12,16(20),17-hexaene-8,14,14-trione]
Ent. A Max Activity (%) [2]: ++ (++ is 30-60%)

Ent. A Max Activity (%) (Enteroid Assay A): ++ (++ is 30-60%)
EC50 (Enteroid Assay A): < 1000 nM
Structure (SMILES): Cc1cccc(C)c1-c1cc2nc(n1)NS(=O)(=O)c1cccc(c1)CN1C[C@@H](CN(Cc3ccccc3)CC1=O)O2 (stereo in doubt) [Compound 144]

EC50 [1]: < 1000 nM
Structure (SMILES): Cc1cccc(C)c1-c1cc2nc(n1)NS(=O)(=O)c1cccc(c1)C(=O)N1Cc3ccccc3[C@@H](O2)[C@H]1CC(C)C (stereo in doubt) [Compound 332]
Ent. A Max Activity (%) [2]: +++ (+++ is >60%)

EC50 [1]: 3000 to 30000 nM
Structure (SMILES): Cc1cccc(C)c1-c1cc2nc(n1)NS(=O)(=O)c1cccc(c1)C(=O)N1CCNC[C@H](C1)O2 [Compound 2, (16R)-12-(2,6-Dimethylphenyl)-15-oxa-8λ^6-thia-1,9,11,18,22-pentaazatetracyclo[14.4.1.13,7.110,14]tricosa-3,5,7(23),10,12,14(22)-hexaene-2,8,8-trione]
Ent. A Max Activity (%) [2]: +++ (+++ is >60%)
